# How the values were obtained:
# Assay type in all cases: in vivo
# Heliothis virescens = assay: Action on Tobacco Budworm (Heliothis virescens); details: 800 ppm; egg and larval mortality; 5 days
# Protocol: Example B5: Action on Tobacco Budworm (Heliothis virescens)
# For evaluating control of tobacco budworm (Heliothis virescens) the test unit consisted of 96-well-microtiter plates containing an insect diet and 15-25 H. virescens eggs.
# The compounds were formulated using a solution containing 75% v/v water and 25% v/v DMSO. Different concentrations of formulated compounds were sprayed onto the insect diet at 10 μl, using a custom-built micro atomizer, at two replications.
# After application, microtiter plates were incubated at about 28±1 °C and about 80±5% relative humidity for 5 days. Egg and larval mortality were then visually assessed.
# Plutella xylostella = assay: Action on Diamond Back Moth (Plutella xylostella), cabbage leaf dip, 3rd instar larvae; details: 300 ppm; 3rd instar larvae; 72 hours after treatment
# Protocol: Example B6: Action on Diamond Back Moth (Plutella xylostella)
# The active compound is dissolved at the desired concentration in a mixture of 1:1 (v/v) distilled water:acetone. Surfactant (Kinetic® HV) is added at a rate of 0.01% (v/v). The test solution is prepared at the day of use.
# Leaves of cabbage were dipped in test solution and air-dried. Treated leaves were placed in petri dishes lined with moist filter paper and inoculated with ten 3rd instar larvae. Mortality was recorded 72 hours after treatment. Feeding damages were also recorded using a scale of 0-100%.
# (§1) Compounds disclosed in the document WO2021013561 were prepared according to procedures described therein and their pesticidal activities were determined by procedure analogues to the procedures as described above in examples B6 and B7.
# Spodoptera eridania = assay: Action on Southern Armyworm (Spodoptera eridania), 2nd Instar Larvae; details: 300 ppm; 2nd instar larvae; 4 days after treatment
# Protocol: Example B7: Action on Southern Armyworm (Spodoptera eridania), 2nd Instar Larvae
# The active compounds were formulated by a Tecan liquid handler in 100% cyclohexanone as a 10,000 ppm solution supplied in tubes. The 10,000 ppm solution was serially diluted in 100% cyclohexanone to make interim solutions. These served as stock solutions for which final dilutions were made by the Tecan in 50% acetone: 50% water (v/v) into 10 or 20 ml glass vials. A nonionic surfactant (Kinetic®) was included in the solution at a volume of 0.01% (v/v). The vials were then inserted into an automated electrostatic sprayer equipped with an atomizing nozzle for application to plants/insects.
# Lima bean plants (variety Sieva) were grown 2 plants to a pot and selected for treatment at the 1st true leaf stage. Test solutions were sprayed onto the foliage by an automated electrostatic plant sprayer equipped with an atomizing spray nozzle. The plants were dried in the sprayer fume hood and then removed from the sprayer. Each pot was placed into perforated plastic bags with a zip closure. About 10 to 11 armyworm larvae were placed into the bag and the bags zipped closed. Test plants were maintained in a growth room at about 25 °C and about 20-40% relative humidity for 4 days, avoiding direct exposure to fluorescent light (24 hour photoperiod) to prevent trapping of heat inside the bags. Mortality and reduced feeding were assessed 4 days after treatment, compared to untreated control plants.
# as §1
# Anthonomus grandis = assay: Action on Boll Weevil (Anthonomus grandis); details: 800 ppm; egg and larval mortality; 5 days
# Protocol: Example B3: Action on Boll Weevil (Anthonomus grandis)
# For evaluating control of boll weevil (Anthonomus grandis) the test unit consisted of 96-well-microtiter plates containing an insect diet and 5-10 A. grandis eggs.
# The compounds were formulated using a solution containing 75% (v/v) water and 25% (v/v) DMSO. Different concentrations of formulated compounds were sprayed onto the insect diet at 5 μl, using a custom-built micro atomizer, at two replications.
# After application, microtiter plates were incubated at about 25±1 °C and about 75±5% relative humidity for 5 days. Egg and larval mortality were then visually assessed.
# Aedes aegypti = assay: whole plant or invertebrate; details: 800 ppm; larvae; 2 days
# Protocol: Example B1: Action on Yellow Fever Mosquito (Aedes aegypti)
# For evaluating control of yellow fever mosquito (Aedes aegypti) the test unit consisted of 96-well-microtiter plates containing 200 μl of tap water per well and 5-15 freshly hatched A. aegypti larvae.
# The active compounds or mixtures were formulated using a solution containing 75% (v/V) water and 25% (v/v) DMSO. Different concentrations of formulated compounds or mixtures were sprayed onto the insect diet at 2.5 μl, using a custom-built micro atomizer, at two replications. For experimental mixtures in these tests identical volumes of both mixing partners at the desired concentrations respectively, were mixed together.
# After application, microtiter plates were incubated at 28±1 °C, 80±5% RH for 2 days. Larval mortality was then visually assessed.
Structure (SMILES),mortality in comparison with untreated controls (Heliothis virescens),mortality in comparison with untreated controls (Plutella xylostella),mortality in comparison with untreated controls (Spodoptera eridania),mortality in comparison with untreated controls (Anthonomus grandis),mortality in comparison with untreated controls (Aedes aegypti)
Cc1ccc(C(C)C)c(N2C(=O)CSC2=NC(=O)Nc2ccc(-n3cc(NC(=O)c4ccc(C5CC5(Cl)Cl)cc4)c(C)n3)cc2)c1 (racemic) [Example C-89],at least 75%,at least 75%,at least 75%,,
Cc1ccc(C(C)C)c(N2C(=O)CS/C2=N\C(=O)Nc2ccc(-n3cc(NC(=O)c4ccc(C#N)cc4)c(C)n3)cc2)c1 [Example C-33],at least 75%,at least 75%,at least 75%,at least 75%,
COC(C)(C)c1ccc(C(=O)Nc2cn(-c3ccc(NC(=O)N=C4SCC(=O)N4c4cc(C)ccc4C(C)C)cc3)nc2C)cc1 [Example C-61],at least 75%,at least 75%,,,
C#CCOc1ccc(C(=O)Nc2cn(-c3ccc(NC(=O)N=C4SCC(=O)N4c4cc(C)ccc4C(C)C)cc3)nc2C)cc1 [Example C-67],at least 75%,at least 75%,at least 75%,,at least 50%
CC(=O)c1ccc(C(=O)Nc2cn(-c3ccc(NC(=O)N=C4SCC(=O)N4c4cc(C)ccc4C(C)C)cc3)nc2C)cc1 [Example C-69],,,at least 75%,,
Cc1ccc(C(C)C)c(N2C(=O)CSC2=NC(=O)Nc2ccc(-n3cc(NC(=O)c4ccc(C(C)C)cc4)c(C)n3)cc2)c1 [Example C-70],at least 75%,at least 75%,,,at least 50%
Cc1ccc(C(C)C)c(N2C(=O)CSC2=NC(=O)Nc2ccc(-n3cc(NC(=O)c4ccc(C#CC5CC5)cc4)c(C)n3)cc2)c1 [Example C-72],at least 75%,,,,
Cc1ccc(C(C)C)c(N2C(=O)CSC2=NC(=O)Nc2ccc(-n3cc(NC(=O)c4ccc(N(C)C)cc4)c(C)n3)cc2)c1 [Example C-75],at least 75%,at least 75%,at least 75%,at least 75%,
Cc1ccc(C(C)C)c(N2C(=O)CSC2=NC(=O)Nc2ccc(-n3cc(NC(=O)c4ccc(OCC#N)cc4)c(C)n3)cc2)c1 [Example C-76],at least 75%,at least 75%,at least 75%,at least 75%,
Cc1ccc(C(C)C)c(N2C(=O)CSC2=NC(=O)Nc2ccc(-n3cc(NC(=O)c4ccc(C5(F)COC5)cc4)c(C)n3)cc2)c1 [Example C-77],at least 75%,at least 75%,,at least 75%,
Cc1ccc(C(C)C)c(N2C(=O)CSC2=NC(=O)Nc2ccc(-n3cc(NC(=O)c4ccc(CC#N)cc4)c(C)n3)cc2)c1 [Example C-78],at least 75%,at least 75%,at least 75%,at least 75%,
CCc1ccc(C(=O)Nc2cn(-c3ccc(NC(=O)N=C4SCC(=O)N4c4cc(C)ccc4C(C)C)cc3)nc2C)cc1 [Example C-80],at least 75%,at least 75%,,at least 75%,at least 50%
CSc1ccc(C(=O)Nc2cn(-c3ccc(NC(=O)N=C4SCC(=O)N4c4cc(C)ccc4C(C)C)cc3)nc2C)cc1 [Example C-83],at least 75%,at least 75%,,at least 75%,at least 50%
Cc1ccc(C(C)C)c(N2C(=O)CSC2=NC(=O)Nc2ccc(-n3cc(NC(=O)c4cnc(C#N)nc4)c(C)n3)cc2)c1 [Example C-84],,at least 75%,,,
CCOc1ccc(C(=O)Nc2cn(-c3ccc(NC(=O)N=C4SCC(=O)N4c4cc(C)ccc4C(C)C)cc3)nc2C)cc1 [Example C-85],at least 75%,at least 75%,at least 75%,,
Cc1ccc(C(C)C)c(N2C(=O)CSC2=NC(=O)Nc2ccc(-n3cc(NC(=O)c4ccc(C5(C#N)CC5)cc4)c(C)n3)cc2)c1 [Example C-86],at least 75%,at least 75%,at least 75%,,
C=Cc1ccc(C(=O)Nc2cn(-c3ccc(NC(=O)N=C4SCC(=O)N4c4cc(C)ccc4C(C)C)cc3)nc2C)cc1 [Example C-87],at least 75%,at least 75%,,at least 75%,at least 50%
Cc1ccc(C(C)C)c(N2C(=O)CSC2=NC(=O)Nc2ccc(-n3cc(NC(=O)c4ccc(C#N)nc4)c(C)n3)cc2)c1 [Example C-90],,at least 75%,,at least 75%,
Cc1ccc(C(C)C)c(N2C(=O)CSC2=NC(=O)Nc2ccc(-n3cc(NC(=O)c4ccc(S(C)(=O)=O)cc4F)c(C)n3)cc2)c1 [Example C-91],at least 75%,at least 75%,at least 75%,at least 75%,
Cc1ccc(C(C)C)c(N2C(=O)CSC2=NC(=O)Nc2ccc(-n3cc(NC(=O)c4ccc(C5(C)COC5)cc4)c(C)n3)cc2)c1 [Example C-92],at least 75%,at least 75%,,at least 75%,
Cc1ccc(C(C)C)c(N2C(=O)CSC2=NC(=O)Nc2ccc(-n3nc(C)c(NC(=O)c4ccc(F)cc4)c3C)cc2Cl)c1 [Example C-124],,,at least 75%,,
Cc1ccc(C(C)C)c(N/C(=N/C(=O)Nc2ccc(-n3cc(NC(=O)c4ccc(OC(F)(F)F)cc4)c(C)n3)cc2)SCOC(=O)C(C)C)c1 [Example C-129],at least 75%,at least 75%,,at least 75%,at least 50%
Cc1ccc(C(C)C)c(N2C(=O)CSC2=NC(=O)Nc2ccc(-n3cc(NC(=O)c4ccc(OC(F)(F)F)cc4)c(C)n3)cc2Cl)c1 [Example C-131],,,at least 75%,,
Cc1ccc(C(C)C)c(N2C(=O)CSC2=NC(=O)Nc2ccc(-n3cc(NC(=O)c4ccc(Cl)cc4Cl)c(C)n3)cc2Cl)c1 [Example C-132],,,at least 75%,,
